From US20030118985A1, “Mouse monoclonal antibody (5-21-3) to human immunodeficiency virus gp41 protein” (priority 1997, published 2003)

Key:
[1] = tested on: Rabbit (R) anti-P58-130 serum; assay: Immunoprecipitation of [125I] synthetic peptides by rabbit anti-P58-130 serum; type: binding; conditions: for SPECIFIC PRECIPITATION (CPM) by RαP58-130 / x-fold increase of specific over non-specific precipitation, RαP58-130: rabbit anti-P58-130 serum 20 ul/0.2 ml, second antibody precipitation; for x-fold increase of specific over non-specific precipitation, RαP58-130: vs normal rabbit serum
Description: (§1) Synthetic peptides were radiolabeled with ^125I (Amersham) by the chloramine T method (N. M. Hunter, “Radioimmunoassay” in D. M. Weir, Ed., Handbook of Experimental Immunology, [Blackwell Scientific Publications, 1973]). Generally, 2-6 ul of 100 mCi/ml ^125I were added to 10-50 ug of peptide in PBS, pH 7.4. Approximately 10 ug of freshly prepared (1 mg/ml in PBS) chloramine T were added to the mixture maintained at 4° C. After 5 min., [^125I]peptide was separated from free ^125I by passage of the reaction mixture through a 3 ml (bed volume) column of Biogel P-6 or P-2, as required. Fractions (200 ul each) containing [^125I]peptide were pooled and diluted into PBS containing 20% fetal calf serum. Rough estimations of ^125I cpm bound to peptide were made by acid precipitation. An aliquot of labeled peptide was diluted into 1 ml of ice cold 50% trichloroacetic acid (TCA) overlaying a 0.45 um filter (made of mixed cellulose esters) set on a scintered glass filter connected to a vacuum apparatus. Precipitated protein was fixed onto the filter by application of vacuum, and filters were washed with ice-cold 50% TCA. Background cpm adhering non-specifically to the filter were estimated by repeating the procedure using a non-precipitating buffer. Amounts of peptide, ^125I, chloramine T, and composition of column eluting buffer were subject to change depending on conditions required to maintain solubility of each peptide.
(§2) Synthetic peptides radiolabeled with ^125I were diluted into PBS (pH 7.4) containing 0.1% Triton X-100 (or other detergents where indicated) and 1.0% BSA, to yield approximately 2.5-5×10^5 acid-precipitable cpm per 0.1 ml. Purified monoclonal IgG 5-21-3 and 10-15-63 were employed in the assay. Monoclonal antibodies were diluted into PBS containing 0.1% Triton X-100 (or other detergents where indicated), 1.0% BSA, and 2% normal mouse serum as a carrier immunoglobulin. Immune rabbit serum (anti-P58-130) was diluted appropriately into the same buffer except that normal rabbit serum (2%) was substituted for normal mouse serum as the carrier immunoglobulin. A reaction mixture comprising 0.1 ml [^125I] peptide (5×10^5 cpm/0.1 ml) and 0.1 ml diluted antibody was incubated 1 hr at 40° C., followed by addition of 0.1 ml of a precipitating antibody, either goat anti-mouse IgG, or goat anti-rabbit IgG, corresponding to the primary antibody. The reaction mixture was incubated 1 hr at 40° C. and then overnight at 4° C. […] Precipitation assays employing Protein A-Sepharose as the precipitating reagent were performed in a similar manner, except that normal sera were omitted from the reaction mixtures.

[2] = tested on: monoclonal antibody 5-21-3; assay: Immunoprecipitation of [125I] synthetic peptides by 5-21-3; type: binding, mouse; conditions: for SPECIFIC PRECIPITATION (CPM) by 5-21-3 / x-fold increase of specific over non-specific precipitation, 5-21-3: 5-21-3 10 μg/0.2 ml, second antibody precipitation; for SPECIFIC PRECIPITATION (CPM) by 5-21-3: PBS, 0.1% Triton X-100, 1.0% BSA, carrier serum; for x-fold increase of specific over non-specific precipitation, 5-21-3: vs normal mouse IgG
Description: as §1, §2

[3] = tested on: monoclonal antibody 10-15-63; assay: Immunoprecipitation of [125I] synthetic peptides by 10-15-63; type: binding, mouse; conditions: for SPECIFIC PRECIPITATION (CPM) by 10-15-63 / x-fold increase of specific over non-specific precipitation, 10-15-63: 10-15-63 10 μg/0.2 ml, second antibody precipitation; for SPECIFIC PRECIPITATION (CPM) by 10-15-63: PBS, 0.1% Triton X-100, 1.0% BSA, carrier serum; for x-fold increase of specific over non-specific precipitation, 10-15-63: vs normal mouse IgG
Description: as §1, §2

[4] = tested on: binding of antibody 5-21-3 to rp41; assay: Binding inhibition assay: peptides inhibit binding of 5-21-3 to rp41; set-up: species or system HIV I; conditions: for Molar Ratio at 50% inhibition of 5-21-3 binding: mean of two experiments, 0.4 pmol 5-21-3 IgG per well
Description: Additional evidence for the conformationl nature of the 5-21-3 epitope was obtained using binding inhibition studies, in which synthetic peptides were ranked for their ability to inhibit binding of 5-21-3 to rp41. First, the Fab dimer of an anti-gp41 monoclonal antibody was prepared by conventional methods (Goding et al., supra). Then 100 ul of a 1 mg/ml solution of the Fab dimer in bicarbonate buffer (pH 9.6) was coated onto Immulon II microtiter plates for 1 hr at 37° C. After washing with PBS containing 0.05% Tween 20, the plates were overcoated with 200 ul of 1.0% ovalbumin in bicarbonate buffer (pH 9.6) for 1 hr at 30° C. After washing, 100 ul of rp41 enriched E. coli lysate (as described in Example 3), diluted appropriately in PBS containing 0.05% Tween 20, were allowed to bind to the Fab dimer for 2 hr at 30° C. The plates were washed and stored at 4° C.
Intact monoclonal antibody 5-21-3 IgG (purified from tissue culture fluid supporting growth of the cloned cell line 5-21-3) was titrated against the bound rp41 on the plate, and an antibody concentration was selected which yielded an A492 value of 2.0-3.0. Usually, 0.4 pmol (0.06 ug) of 5-21-3 IgG per microtiter well was employed in these assays. Stock solutions of 5-21-3 IgG were prepared in PBS containing 0.1% Triton X-100 and 0.1% SDS. Dilutions of synthetic peptides were made in the same buffer (SDS was included in these experiments to keep peptides soluble at high concentrations).
The binding inhibition assay was performed by combining 0.15 ml of 1.2 ug/ml 5-21-3 antibody stock solution with 0.15 ml of peptide at a selected peptide concentration, and incubating the reaction mixture 1 hr at room temp. Then 0.1 ml aliquots of each reaction mixture were added to each of two wells in the microtiter tray. After a 1 hr incubation at room temp., the plates were washed, and HRPO conjugated Goat anti-mouse IgG Fc was added for 1 hr at room temp. The plates were washed, and addition of OPD for color development identified the relative amounts of 5-21-3 bound to rp41 in the microtiter wells. The reaction was stopped by addition of 100 ul of 1N H2SO4, and the plates were read on a Dynatech II microtiter plate reader.

[5] = tested on: monoclonal antibody 5-21-3; assay: Immuno-dot blot of synthetic peptides with 5-21-3; type: binding, mouse; conditions: 25 ug/ml 5-21-3; mild washing procedures
From the text: The western Blot procedure described in Example 1 was employed for development of immuno-dot blots using synthetic peptides, except that synthetic peptides were fixed to nitrocellulose by direct application using Drummond lambda pipettes, and air dried prior to blocking with 20% fetal calf serum in PBS (pH 7.4).

| Substance | SPECIFIC PRECIPITATION (CPM) by RαP58-130 [1] | x-fold increase of specific over non-specific precipitation, RαP58-130 [1] | binding of [125I]peptide by 5-21-3 (immunoprecipitation), in words [2] | SPECIFIC PRECIPITATION (CPM) by 5-21-3 [2] | x-fold increase of specific over non-specific precipitation, 5-21-3 [2] | SPECIFIC PRECIPITATION (CPM) by 10-15-63 [3] [CPM] | x-fold increase of specific over non-specific precipitation, 10-15-63 [3] | inhibition of 5-21-3 binding to rp41, in words [4] | Molar Ratio at 50% inhibition of 5-21-3 binding [4] | SPECIFIC PRECIPITATION (CPM) ([2]; 5-21-3 1.0 μg/ml final) | x-fold increase of specific over non-specific precipitation ([2]; 5-21-3 1.0 μg/ml final) | SPECIFIC PRECIPITATION (CPM) ([2]; 5-21-3 10.0 μg/ml final) | x-fold increase of specific over non-specific precipitation ([2]; 5-21-3 10.0 μg/ml final) | SPECIFIC PRECIPITATION (CPM) ([2]; 5-21-3 100.0 μg/ml final) | x-fold increase of specific over non-specific precipitation ([2]; 5-21-3 100.0 μg/ml final) | SPECIFIC PRECIPITATION (CPM) ([3]; 10-15-63 1.0 μg/ml final) | x-fold increase of specific over non-specific precipitation ([3]; 10-15-63 1.0 μg/ml final) | SPECIFIC PRECIPITATION (CPM) ([3]; 10-15-63 10.0 μg/ml final) | x-fold increase of specific over non-specific precipitation ([3]; 10-15-63 10.0 μg/ml final) | SPECIFIC PRECIPITATION (CPM) ([3]; 10-15-63 100.0 μg/ml final) | further results |
| --- | --- | --- | --- | --- | --- | --- | --- | --- | --- | --- | --- | --- | --- | --- | --- | --- | --- | --- | --- | --- | --- |
| IHSLIEESQNQQEKNEQELLELDKWANLWNWLNITNWLWYIKLFI [P131-175] | 0 CPM | (<1) x-fold | Little or no binding activity | 317 CPM | (1.6) x-fold | 188 | (1.4) x-fold | definite inhibitor | 18,815 pmoles peptide/pmoles 5-21-3 |  |  |  |  |  |  |  |  |  |  |  |  |
| YNYTSLIHSLIEESQNQQEKNEQELLELDKWANLWNWL [P126-162] | 0 CPM | (<1) x-fold | recognized by 5-21-3 | 11,540 CPM | (3.4) x-fold | 0 | (<1) x-fold | roughly equivalent to that of P121-154 | 1,585 pmoles peptide/pmoles 5-21-3 | 0 | (0) x-fold | 295 CPM | (1.1) x-fold | 4,924 CPM | (1.6) x-fold | 0 | (0) x-fold | 0 | (0) x-fold | 0 | x-fold increase of specific over non-specific precipitation ([3]; 10-15-63 100.0 μg/ml final): (0) x-fold; immuno-dot blot reactivity with 5-21-3 [5]: additional 5-21-3 reactivity was observed |
| IHSLIEESQNQQEKNEQELLELDK [P131-154] | 0 CPM | (<1) x-fold | unable to bind | 970 CPM | (1.1) x-fold | 0 | (<1) x-fold | could not be demonstrated | >50,000 pmoles peptide/pmoles 5-21-3 | 0 | (0) x-fold | 0 CPM | (0) x-fold | 0 CPM | (0) x-fold | 0 | (0) x-fold | 0 | (0) x-fold | 112 | 5-21-3 concentration required to demonstrate binding of the peptide ([2]; immunoprecipitation, Table 5): could not be demonstrated; x-fold increase of specific over non-specific precipitation ([3]; 10-15-63 100.0 μg/ml final): (1.1) x-fold |
| NH2-Asp-Arg-Glu-Ile-Asn-Asn-Tyr-Thr-Ser-Leu-Ile-His-Ser-Leu-Ile-Glu-Glu -Ser-Gln-Asn-Gln-Gln-Glu-Lys-Asn-Glu-Gln-Glu-Leu-Leu-Glu-Leu-Asp-Lys-COOH (H-DREINNYTSLIHSLIEESQNQQEKNEQELLELDK-OH) [P121-154] | 310,419 CPM | (24) x-fold | recognized by 5-21-3 | 40,717 CPM | (31) x-fold | 371 | (1.3) x-fold | potent inhibitor | 1,494 pmoles peptide/pmoles 5-21-3 | 0 | (0) x-fold | 1,113 CPM | (2.3) x-fold | 18,984 CPM | (13) x-fold | 0 | (0) x-fold | 0 | (0) x-fold | 0 | precipitation of [125I]peptide by rabbit anti-P58-130, in words [1]: strong precipitator; x-fold increase of specific over non-specific precipitation ([3]; 10-15-63 100.0 μg/ml final): (0) x-fold; fold less active than P67-154 in binding inhibition [4]: 20 fold; fold restoration of binding inhibition activity relative to P131-154 [4]: 20-65 fold; immuno-dot blot reactivity with 5-21-3 [5]: faint, diffuse reaction |
